Data taken from paper PMC7391767, “Molecular mechanisms underlying menthol binding and activation of TRPM8 ion channel” (Nature Communications, 2020).
“And” between values parts separate entries of the source, which are not always exact repeats. Equal entries are not always repeated. “Also recorded” adds a separate entry of the source. Where two headings read alike, the source gives them in different places. One block for each molecule: values may come before it.

Legend:
Type in all cases: cell-based
wild-type TRPM8 = biological target: T1, wild-type TRPM8 (Mus musculus, UniProt Q8R4D5); test: whole-cell patch-clamp recording of ligand activation
T1 construct: expressed in transfected cells; host or cells: HEK293T
T1 sequence (Q8R4D5 whole entry): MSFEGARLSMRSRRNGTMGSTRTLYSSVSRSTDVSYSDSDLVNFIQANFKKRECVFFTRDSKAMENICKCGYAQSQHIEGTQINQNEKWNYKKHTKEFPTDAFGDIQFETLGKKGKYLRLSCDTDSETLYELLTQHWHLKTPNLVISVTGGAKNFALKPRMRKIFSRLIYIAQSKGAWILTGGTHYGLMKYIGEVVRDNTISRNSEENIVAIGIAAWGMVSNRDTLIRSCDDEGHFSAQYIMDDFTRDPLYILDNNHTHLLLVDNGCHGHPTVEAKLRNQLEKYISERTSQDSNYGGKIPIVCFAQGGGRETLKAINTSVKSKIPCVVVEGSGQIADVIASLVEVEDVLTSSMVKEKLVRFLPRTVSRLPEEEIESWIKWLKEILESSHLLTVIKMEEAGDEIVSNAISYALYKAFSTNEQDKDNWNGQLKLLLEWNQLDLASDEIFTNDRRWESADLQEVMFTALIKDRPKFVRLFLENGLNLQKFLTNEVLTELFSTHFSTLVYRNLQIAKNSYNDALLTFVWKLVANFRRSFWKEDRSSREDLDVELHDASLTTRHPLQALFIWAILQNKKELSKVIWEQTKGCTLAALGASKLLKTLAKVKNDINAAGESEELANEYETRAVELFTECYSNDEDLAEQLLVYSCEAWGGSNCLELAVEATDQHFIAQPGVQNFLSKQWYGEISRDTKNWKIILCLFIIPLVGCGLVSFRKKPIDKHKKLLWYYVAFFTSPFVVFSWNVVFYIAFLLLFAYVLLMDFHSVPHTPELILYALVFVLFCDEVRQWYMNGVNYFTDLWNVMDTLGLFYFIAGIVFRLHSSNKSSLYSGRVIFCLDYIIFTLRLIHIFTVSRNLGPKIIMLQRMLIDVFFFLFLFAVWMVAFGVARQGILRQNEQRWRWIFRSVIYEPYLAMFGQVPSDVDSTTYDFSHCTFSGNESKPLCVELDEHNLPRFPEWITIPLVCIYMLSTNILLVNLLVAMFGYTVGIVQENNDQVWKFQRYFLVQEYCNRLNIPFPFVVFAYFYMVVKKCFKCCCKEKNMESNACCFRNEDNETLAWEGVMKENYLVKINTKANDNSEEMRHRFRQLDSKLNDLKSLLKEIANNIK
Protocol: Murine TRPM8 was used in this study. Point mutations were made by Fast Mutagenesis Kit V2 (SBS Genetech). Primers used to generate point mutations are summarized in Supplementary Table 2.
Cells were transiently transfected with cDNA constructs by Lipofectamine 3000 (Life Technologies) following the manufacturer’s protocol. Patch-clamp recordings were performed 1–2 days after transfection.
(§1) Patch-clamp recordings were performed with a HEKA EPC10 amplifier controlled by PatchMaster software (HEKA). Whole-cell recordings were performed at ±80 mV. Patch pipettes were prepared from borosilicate glass and fire-polished to resistance of ~4 MΩ. For whole-cell recording, serial resistance was compensated by 60%. For single-channel recordings, patch pipettes were fire-polished to a higher resistance of 6-to-10 MΩ and then recorded in the inside-out configuration. To maximize the chance of obtaining a patch with only one channel, single-channel recordings were performed about 8 h after transfection. A solution with 130 mM NaCl, 10 mM glucose, 0.2 mM EDTA, and 3 mM HEPES (pH 7.2) was used in both bath and pipette for either whole-cell or single-channel recordings. Membrane potential was clamped at +80 mV for single-channel recordings. Current was sampled at 10 kHz and filtered at 2.9 kHz. All recordings were performed at room temperature (22 °C) with the maximum variation of 1 °C.
(§2) Ligands such as menthol and its analogs were perfused to membrane patch by a gravity-driven system (RSC-200, Bio-Logic). Bath and ligand solution were delivered through separate tubes to minimize the mixing of solutions. Patch pipette was placed in front of the perfusion tube outlet.
Data from whole-cell recordings were analyzed in Igor Pro version 6.1 (WaveMatrix). EC50 values were derived from fitting a Hill equation to the concentration–response relationship. […] To distinguish these possibilities, dissociation constant (Kd) for ligand binding was estimated assuming the following gating scheme:1 C0↔KdC1↔LO, where L is the equilibrium constant for the final closed-to-open transition.

TRPM8 L843I = biological target: T2, TRPM8 L843I (Mus musculus, UniProt Q8R4D5, L843I); test: whole-cell patch-clamp and thermodynamic mutant cycle analysis
T2 construct: expressed in transfected cells; host or cells: HEK293T
T2 sequence (Q8R4D5 whole entry L843I): as the sequence (Q8R4D5 whole entry) above, with L843I counted along it
Protocol: (§3) Murine TRPM8 was used in this study. Point mutations were made by Fast Mutagenesis Kit V2 (SBS Genetech). Primers used to generate point mutations are summarized in Supplementary Table 2. All mutations were confirmed by sequencing.
(§4) HEK293T cells purchased from Kunming Cell Bank, Kunming Institute of Zoology, Chinese Academy of Sciences (ATCC, CRL-3216) were cultured in Dulbecco’s modified Eagle’s medium supplemented with 20 mM L-glutamine and 10% fetal bovine serum. Cells were transiently transfected with cDNA constructs by Lipofectamine 3000 (Life Technologies) following the manufacturer’s protocol. Patch-clamp recordings were performed 1–2 days after transfection.
as §1, §2
(§5) Data from whole-cell recordings were analyzed in Igor Pro version 6.1 (WaveMatrix). EC50 values were derived from fitting a Hill equation to the concentration–response relationship. Changes in EC50 by point mutation may be caused by either perturbation of ligand bind or channel gating or both. To distinguish these possibilities, dissociation constant (Kd) for ligand binding was estimated assuming the following gating scheme:1 C0↔KdC1↔LO, where L is the equilibrium constant for the final closed-to-open transition.
(§6) To perform thermodynamic cycle analysis, Kd values of four channel-ligand combinations (WT channel, menthol: Kd _1; Mutant channel, menthol: Kd _2; WT channel, menthol analog: Kd _3; Mutant channel, menthol analog: Kd _4) were determined separately. The strength of coupling was determined by the coupling energy (kT multiplied by LnΩ, where k is the Boltzmann constant and T is temperature in Kelvin). LnΩ was calculated by Eq. (2) as[51]2 LnΩ=LnKd_1⋅Kd_4/Kd_2⋅Kd_3.

TRPM8 Y745F = biological target: T3, TRPM8 Y745F (Mus musculus, UniProt Q8R4D5, Y745F); test: as above
T3 construct: expressed in transfected cells; host or cells: HEK293T
T3 sequence (Q8R4D5 whole entry Y745F): as the sequence (Q8R4D5 whole entry) above, with Y745F counted along it
Protocol: as §3, §4, §1, §2, §5, §6

TRPM8 L843V = biological target: T4, TRPM8 L843V (Mus musculus, UniProt Q8R4D5, L843V); test: as above
T4 construct: expressed in transfected cells; host or cells: HEK293T
T4 sequence (Q8R4D5 whole entry L843V): as the sequence (Q8R4D5 whole entry) above, with L843V counted along it
Protocol: as §3, §4, §1, §2, §5, §6

TRPM8 F839A = biological target: T5, TRPM8 F839A (Mus musculus, UniProt Q8R4D5, F839A); test: as above
T5 construct: expressed in transfected cells; host or cells: HEK293T
T5 sequence (Q8R4D5 whole entry F839A): as the sequence (Q8R4D5 whole entry) above, with F839A counted along it
Protocol: as §3, §4, §1, §2, §5, §6

TRPM8 L843A = biological target: T6, TRPM8 L843A (Mus musculus, UniProt Q8R4D5, L843A); test: as above
T6 construct: expressed in transfected cells; host or cells: HEK293T
T6 sequence (Q8R4D5 whole entry L843A): as the sequence (Q8R4D5 whole entry) above, with L843A counted along it
Protocol: as §3, §4, §1, §2, §5, §6

TRPM8 I846V = biological target: T7, TRPM8 I846V (Mus musculus, UniProt Q8R4D5, I846V); test: as above
T7 construct: expressed in transfected cells; host or cells: HEK293T
T7 sequence (Q8R4D5 whole entry I846V): as the sequence (Q8R4D5 whole entry) above, with I846V counted along it
Protocol: as §3, §4, §1, §2, §5, §6

TRPM8 V775A = biological target: T8, TRPM8 V775A (Mus musculus, UniProt Q8R4D5, V775A); test: as above
T8 construct: expressed in transfected cells; host or cells: HEK293T
T8 sequence (Q8R4D5 whole entry V775A): as the sequence (Q8R4D5 whole entry) above, with V775A counted along it
Protocol: as §3, §4, §1, §2, §5, §6

[1] = R(kcal/K/mol) 1.99E-03, T 2.97E+02, menthol vs labelled analog
[2] = mutant cycle menthol vs labelled analog

Compound: OC1CCCCC1 [cyclohexanol]
- activation of TRPM8 channel (wild-type TRPM8; up to 5 mM): failed to open; also recorded: cannot activate

- Ratio X2 (Kd menthol / Kd labelled analog) (TRPM8 L843I): 0.229
- Energy, Ave (TRPM8 L843I; [1]): 0.81
- Omega(X1/X2) (TRPM8 L843I; menthol vs labelled analog): 3.95
- Coupling Energy (TRPM8 L843I; [2]): 1.37 kT
- Ratio X2 (Kd menthol / Kd labelled analog) (TRPM8 Y745F): 1.55E+00
- Energy, Ave (TRPM8 Y745F; [1]): -0.32
- Omega(X1/X2) (TRPM8 Y745F; menthol vs labelled analog): 0.58
- Coupling Energy (TRPM8 Y745F; [2]): 0.54 kT
- Ratio X2 (Kd menthol / Kd labelled analog) (TRPM8 L843V): 0.4038
- Energy, Ave (TRPM8 L843V; [1]): 0.48
- Omega(X1/X2) (TRPM8 L843V; menthol vs labelled analog): 2.24
- Coupling Energy (TRPM8 L843V; [2]): 0.81 kT
- Ratio X2 (Kd menthol / Kd labelled analog) (TRPM8 F839A): 1.37
- Energy, Ave (TRPM8 F839A; [1]): -0.25
- Omega(X1/X2) (TRPM8 F839A; menthol vs labelled analog): 0.66
- Coupling Energy (TRPM8 F839A; [2]): 0.42 kT
- Ratio X2 (Kd menthol / Kd labelled analog) (TRPM8 L843A): 34.2166
- Energy, Ave (TRPM8 L843A; [1]): -2.14
- Omega(X1/X2) (TRPM8 L843A; menthol vs labelled analog): 0.0264
- Coupling Energy (TRPM8 L843A; [2]): 3.63 kT
- L (equilibrium constant between closed and open states upon ligand binding), Ave (TRPM8 I846V): 41.287
- Ratio X2 (Kd menthol / Kd labelled analog) (TRPM8 I846V): 0.02928
- concentration–response curve value, ave (TRPM8 I846V; 100 microM): 0.5053
- concentration–response curve value, single recording (TRPM8 I846V; 100 microM): 0.5194 and 0.5746 and 0.5283 and 0.3989
- concentration–response curve value, ave (TRPM8 I846V; 200 microM): 0.8162
- concentration–response curve value, single recording (TRPM8 I846V; 200 microM): 0.818 and 0.8632 and 0.783 and 0.8004
- concentration–response curve value, ave (TRPM8 I846V; 500 microM): 0.9296
- concentration–response curve value, single recording (TRPM8 I846V; 500 microM): 0.9586 and 0.8698 and 0.9387 and 0.9513
- concentration–response curve value, ave (TRPM8 I846V; 1000 microM): 0.9432
- concentration–response curve value, single recording (TRPM8 I846V; 1000 microM): 0.9846 and 0.8706 and 0.9587 and 0.9591
- concentration–response curve value, ave (TRPM8 I846V; 5000 microM): 0.9595
- concentration–response curve value, single recording (TRPM8 I846V; 5000 microM): 0.9671 and 0.952
- Energy, Ave (TRPM8 I846V; [1]): 2.02
- Kd (TRPM8 I846V; calculated from concentration–response curves, read-out: Kd, Ave): 4090 µM
- Omega(X1/X2) (TRPM8 I846V; menthol vs labelled analog): 30.85
- Coupling Energy (TRPM8 I846V; [2]): 3.43 kT
- Ratio X2 (Kd menthol / Kd labelled analog) (TRPM8 V775A): 2.4876
- Energy, Ave (TRPM8 V775A; [1]): -0.60
- Omega(X1/X2) (TRPM8 V775A; menthol vs labelled analog): 0.36
- Coupling Energy (TRPM8 V775A; [2]): 1.01 kT
- L (equilibrium constant between closed and open states upon ligand binding), Ave (wild-type TRPM8; WT): 2.233
- Ratio X1 (Kd menthol / Kd labelled analog) (wild-type TRPM8; WT): 0.9034
- concentration–response curve value, ave (wild-type TRPM8; WT, 100 microM): 0.06552
- concentration–response curve value, ave (wild-type TRPM8; WT, 200 microM): 0.185
- concentration–response curve value, ave (wild-type TRPM8; WT, 500 microM): 0.4757
- concentration–response curve value, single recording (wild-type TRPM8; WT, 500 microM): 0.4347 and 0.5954 and 0.3968
- concentration–response curve value, ave (wild-type TRPM8; WT, 1000 microM): 0.5625
- concentration–response curve value, single recording (wild-type TRPM8; WT, 1000 microM): 0.5176 and 0.6462 and 0.5237
- concentration–response curve value, ave (wild-type TRPM8; WT, 5000 microM): 0.6452
- concentration–response curve value, single recording (wild-type TRPM8; WT, 5000 microM): 0.5498 and 0.7014 and 0.6843
- concentration–response curve value, ave (wild-type TRPM8; WT, 10000 microM): 0.6337
- concentration–response curve value, single recording (wild-type TRPM8; WT, 10000 microM): 0.5212 and 0.6983 and 0.6816
- Kd (wild-type TRPM8; WT, calculated from concentration–response curves (EC50 and Po max), read-out: Kd, Ave): 1050 µM
- Kd (wild-type TRPM8; WT, read-out: Kd, single recording): 1320 µM and 824 µM and 542 µM and 812 µM and 1460 µM and 617 µM and 1260 µM and 1590 µM
Compound: C=C(C)[C@@H]1CC[C@@H](C)C[C@H]1O [isopulegol]
